Assay results: patent US12043600B2, “Microbiocidal compounds” (SYNGENTA CROP PROTECTION AG, priority 2018, dated 2024)

Assays:
[1] = system: Monographella nivalis (Microdochium nivale); test: Monographella nivalis (Microdochium nivale)/Liquid Culture (Foot Rot Cereals); assay type: cell-based; settings: liquid culture, compared to untreated control
Summary of the method: (§1)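 Growth inhibition read in liquid culture: spores from frozen stocks, suspended in potato dextrose broth, meet DMSO-dissolved compound placed beforehand in the plate.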

[2] = system: Mycosphaerella arachidis (Cercospora arachidicola); test: Mycosphaerella arachidis (Cercospora arachidicola)/Liquid Culture (Early Leaf Spot); assay type: cell-based; settings: liquid culture, compared to untreated control
Summary of the method: as §1

[3] = system: Mycosphaerella graminicola (Septoria tritici); test: Mycosphaerella graminicola (Septoria tritici)/Liquid Culture (Septoria Blotch); assay type: cell-based; settings: Zymoseptoria tritici; 20 ppm; liquid culture; compared to untreated control
Summary of the method: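 Results given as % disease control: test compound in DMSO was placed in wells first, then potato dextrose broth carrying cryostored fungal conidia was added.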

[4] = system: Magnaporthe grisea (Pyricularia oryzae); test: whole plant or invertebrate; assay type: in vivo; settings: foliar, read-out: control of Magnaporthe grisea
[5] = system: Phakopsora pachyrhizi; test: Phakopsora pachyrhizi/Soybean/Preventative (Soybean Rust); assay type: in vivo; settings: foliar, 288 h, 200 ppm, soybean leaf disc preventative, compared to untreated control, read-out: control of Phakopsora pachyrhizi
[6] = system: Phytophthora infestans; test: whole plant or invertebrate; assay type: in vivo; settings: in Solanum lycopersicum, foliar, read-out: control of Phytophthora infestans
[7] = system: Phaeosphaeria nodorum (Septoria nodorum); test: Phaeosphaeria nodorum (Septoria nodorum)/Wheat/Leaf Disc Preventative (Glume Blotch); assay type: in vivo; settings: Parastagonospora nodorum, foliar, wheat leaf disc preventative, compared to untreated control
Summary of the method: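 Preventative test: compound spray first, then spore inoculation after 2 days on cv. Kanzler wheat leaf segments. Incubation in a climate cabinet at 20 °C and 75% rh under a 12 h light/12 h dark cycle. Activity rated as % control relative to untreated discs at 5–7 days post-application.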

[8] = system: Thanatephorus cucumeris (Rhizoctonia solani); test: Thanatephorus cucumeris (Rhizoctonia solani)/Liquid Culture (Foot Rot, Damping-Off); assay type: cell-based; settings: liquid culture, compared to untreated control
Description: Mycelia fragments of a newly grown liquid culture of the fungus are directly mixed into nutrient broth (PDB potato dextrose broth). After placing a (DMSO) solution of the test compounds into a microtiter plate (96-well format), the nutrient broth containing the fungal material is added.

[9] = system: Plasmopara viticola; test: whole plant or invertebrate; assay type: in vivo; settings: foliar, read-out: control of Plasmopara viticola
[10] = system: Puccinia recondita f. sp. tritici; test: Puccinia recondita f. sp. tritici/Wheat/Leaf Disc Curative (Brown Rust); assay type: in vivo; settings: foliar, wheat leaf disc curative, compared to untreated control
Summary of the method: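 Formulated compound, diluted in water, is applied to inoculated wheat cv. Kanzler leaf segments on agar one day post-inoculation (pre-incubation dark, 19° C, 75% rh). After 6-8 days at 19° C, 75% rh and 12 h/12 h light, activity is rated as percent disease control relative to untreated segments.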

[11] = system: Puccinia recondita f. sp. tritici; test: Puccinia recondita f. sp. tritici/Wheat/Leaf Disc Preventative (Brown Rust); assay type: in vivo; settings: foliar, 200 ppm, wheat leaf disc preventative, compared to untreated control, read-out: control of Puccinia recondita f. sp. tritici
[12] = system: Botryotinia fuckeliana (Botrytis cinerea); test: Botryotinia fuckeliana (Botrytis cinerea)/Liquid Culture (Gray Mould); assay type: cell-based; settings: liquid culture, compared to untreated control
Description: Conidia of the fungus from cryogenic storage are directly mixed into nutrient broth (Vogels broth). After placing a (DMSO) solution of test compound into a microtiter plate (96-well format), the nutrient broth containing the fungal spores is added.

[13] = system: Glomerella lagenarium (Colletotrichum lagenarium); test: Glomerella lagenarium (Colletotrichum lagenarium)/Liquid Culture (Anthracnose); assay type: cell-based; settings: Colletotrichum orbiculare, liquid culture, compared to untreated control
[14] = system: Alternaria solani; test: Alternaria solani/Tomato/Leaf Disc (Early Blight); assay type: in vivo; settings: foliar, tomato leaf disc, compared to untreated control
Summary of the method: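 Protective leaf-disc test: compound sprayed onto tomato cv. Baby disks, spore inoculation following after 2 days. Disks kept at 80% rh, 12/12 h light/dark, 23° C. day and 21° C. night; activity read as percent disease control relative to untreated checks 5-7 days post-application.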

[15] = system: Blumeria graminis f. sp. tritici (Erysiphe graminis f. sp. tritici); test: Blumeria graminis f. sp. tritici/Wheat/Leaf Disc Preventative (Powdery Mildew on Wheat); assay type: in vivo; settings: foliar, wheat leaf disc preventative, compared to untreated control
Summary of the method: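 Preventative leaf-disc test: percent disease control versus untreated leaf segments read 6-8 days post-application. Compound spray applied to wheat cv. Kanzler segments on agar one day before shaking infected plants over them; incubation at 20° C and 60% rh, 24 h darkness then 12 h light/12 h dark cycles.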

[16] = system: Pyrenophora teres; test: Pyrenophora teres/Barley/Leaf Disc Preventative (Net Blotch); assay type: in vivo; settings: foliar, 200 ppm, barley leaf disc preventative, compared to untreated control, read-out: control of Pyrenophora teres
Summary of the method: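 Preventative leaf-disc test: inoculation with fungal spores took place 2 days after spraying segments of barley cv. Hasso, placed on agar, with water-diluted formulated compound. Read-out is % disease control per compound.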

SMILES | inhibition of growth at 20 ppm [1] | inhibition of growth at 20 ppm [2] | inhibition of growth at 20 ppm [3] | pest or weed control at 200 ppm [4] | pest or weed control at 200 ppm [5] | pest or weed control at 200 ppm [6] | pest or weed control at 200 ppm [7] | inhibition of growth at 20 ppm [8] | pest or weed control at 200 ppm [9] | pest or weed control at 200 ppm [10] | pest or weed control at 200 ppm [11] | melting point | inhibition of growth at 20 ppm [12] | inhibition of growth at 20 ppm [13] | pest or weed control at 200 ppm [14] | pest or weed control at 200 ppm [15] | pest or weed control at 200 ppm [16]
CO/C=C(\Oc1cc(-n2ccc(C(C)=NOC)n2)ccc1C)C(=O)OC [Compound E-30, methyl (Z)-3-methoxy-2-[5-[3-(N-methoxy-C-methyl-carbonimidoyl)pyrazol-1-yl]-2-methyl-phenoxy]prop-2-enoate] | ≥ 80% | ≥ 80% | ≥ 80% | ≥ 80% | ≥ 50% | ≥ 80% | ≥ 80% | ≥ 80% | ≥ 80% | ≥ 80% | ≥ 80% | 130 to 133 °C | ≥ 80% | ≥ 80% | ≥ 80% | – | –
CO/C=C(\Oc1cc(C)cc(-n2ccc(C(F)(F)F)n2)c1)C(=O)OC [Compound E-34, methyl (Z)-3-methoxy-2-[3-methyl-5-[3-(trifluoromethyl)pyrazol-1-yl]phenoxy]prop-2-enoate] | ≥ 80% | ≥ 80% | ≥ 80% | ≥ 80% | – | ≥ 80% | – | ≥ 80% | ≥ 80% | – | ≥ 80% | – | ≥ 80% | ≥ 80% | ≥ 80% | ≥ 80% | ≥ 80%
CO/C=C(\Oc1cc(-n2ccc(C3=CCCCC3)n2)ccc1C)C(=O)OC [Compound E-39, methyl (Z)-2-[5-[3-(cyclohexen-1-yl)pyrazol-1-yl]-2-methyl-phenoxy]-3-methoxy-prop-2-enoate] | ≥ 80% | ≥ 80% | ≥ 80% | ≥ 80% | – | ≥ 80% | – | ≥ 80% | ≥ 80% | ≥ 80% | ≥ 80% | 108 to 110 °C | ≥ 80% | ≥ 80% | ≥ 80% | ≥ 80% | ≥ 80%
CO/C=C(\Oc1cc(-n2cc(C(C)C)cn2)ccc1C)C(=O)OC [Compound E-57, methyl (Z)-2-[5-(4-isopropylpyrazol-1-yl)-2-methyl-phenoxy]-3-methoxy-prop-2-enoate] | ≥ 80% | ≥ 80% | ≥ 80% | ≥ 80% | ≥ 50% | ≥ 80% | ≥ 80% | ≥ 80% | ≥ 80% | ≥ 80% | ≥ 80% | – | ≥ 80% | ≥ 80% | ≥ 80% | ≥ 80% | –
CO/C=C(\Oc1cc(-n2cc(C3CCCC3)cn2)ccc1C)C(=O)OC [Compound E-58, methyl (Z)-2-[5-(4-cyclopentylpyrazol-1-yl)-2-methyl-phenoxy]-3-methoxy-prop-2-enoate] | ≥ 80% | ≥ 80% | ≥ 80% | ≥ 80% | ≥ 50% | ≥ 80% | ≥ 80% | ≥ 80% | ≥ 80% | ≥ 80% | ≥ 80% | – | ≥ 80% | ≥ 80% | ≥ 80% | ≥ 80% | –
